Experimental data taken from patent US20060281806A1, “Treatment and inhibition of disease conditions using flexible heteroarotinoids” (priority 2005, published 2006).

How the values were obtained:
[1] = tested on: NCI human tumor cell line panel; assay: SHetA2 cytotoxicity in NCI human tumor cell line panel; format: cell-based; conditions: 48 h
Procedure: The SHetA2 compound was evaluated in the National Cancer Institute (NCI) human tumor cell line panel by the Developmental Therapeutics Program (DTP). The human tumor cell lines were grown in RPMI 1640 medium containing 5% fetal bovine serum and 2 mM L-glutamine. Cells were inoculated into 96 well microtiter plates at densities ranging from 5,000 to 40,000 cells/well depending on the doubling time of individual cell lines and incubated for 24 h prior to addition of SHetA2. After 24 h, two plates of each cell line were fixed in situ with TCA, to represent a measurement of the cell population for each cell line at the time of drug addition (Tz). Drugs were dissolved in dimethyl sulfoxide (DMSO) and diluted in complete medium containing 50 μg/ml gentamicin, prior to addition to the culture wells. […] […] The absorbance was read on an automated plate reader at a wavelength of 515 nm. Using the seven absorbance measurements (time zero, (Tz), control growth, (C), and test growth in the presence of drug at the five concentration levels (Ti)), the GI50 was calculated from [(Ti−Tz)/(C−Tz)]×100=50. […]

[2] = tested on: EAhy.926 endothelial cells; assay: Growth/viability of endothelial cells versus ovarian cancer cell lines; format: cell-based; conditions: SHetA2 for 24 hours
Procedure: The graph on the left provides quantification of the endothelial branches for each treatment dose.
The increased thickness of the vessels at 1 μM and the increasing proportions of solitary clumps of cells at 5 and 10 μM indicate that SHetA2 is inhibiting endothelial cell migration. To determine if this anti-angiogenic activity was due to growth inhibition or cytotoxicity. The viability of the endothelial cells treated with SHetA2 for 24 hours was evaluated. […] This confirms the therapeutic ratio observed in previous studies.

[3] = tested on: organotypic cultures of normal endometrial cells treated with DMBA; assay: Chemoprevention in DMBA-treated organotypic cultures of normal endometrial cells; format: cell-based; conditions: histology and karyometric analysis
Description: Untreated: The specimen is cellular with both surface and mid-gel cells presence in abundance. Two cell types are clearly present. One appears to be stromal. The nuclei are thin and spindle shaped and the cytoplasm is similar. When cut in cross-section the nuclei are very small and round and hyperchromatic. The other cells have large, oval to almost boxcar nuclei with small nucleoli and abundant cytoplasm. Numerous mitosis are present. The epithelial cells are almost syncitial in nature and appear to cling to one another. With DMBA Carcinogen: The specimen is cellular. The cells present have lost their cytoplasm. There is more pleomorphism of the cells and many are very hyperchromatic. Mitoses are very numerous-approximately 2× the number in untreated. Cells no longer are together but are distinct one from another. Stromal cells intermix with the epithelial cells. […]
FIG. 19 illustrates a typical experiment in which organotypic cultures of normal endometrial cells were treated with a carcinogen called DMBA and developed the cancer phenotype. […] All segmented nuclei were then subjected to texture feature extraction using TICAS software, resulting in 95 textrue features for each nucleus that were subjected to quantitative analysis.

[4] = Alanine aminotransferase (ALT) activity in plasma of mice; format: in vivo, mouse; conditions: end of treatment, 10 mg/kg/day by gavage
Procedure: At the end of the treatment period, blood was drawn from each animal. Plasma was separated by centrifugation and stored at −70° C. The activity of ALT was determined in aliquots of plasma by standard spectrophotometric enzymatic techniques which are based on the reduction of pyruvate by lactate dehydrogenase (28). The method measures NADH disappearance with time of incubation at 37° C. The activities are expressed as mm/L/min. Two different amounts of plasma were used in each assay to assure measurement of the maximum rate.

[5] = tested on: blood vessel density in bFGF/VEGF-treated CAMs; assay: Chorioallantoic membrane (CAM) assay; format: in vivo, chick; conditions: 5 μM SHetA2; versus bFGF/VEGF-treated CAMs
Procedure: FIG. 8. Effect of 5 μM SHetA2 on blood vessel density in the CAM assay. The mean± SEM blood vessel density per treatment as compared to bFGF/VEGF-treated CAMs; *=p<0.05 and **=p<0.001 as compared to bFGF/VEGF-treated CAMs as determined by one-way ANOVA and Neuman-Keuls post-test.
The CAM assay that was used is based upon the original procedure by Jakob et al. (36) with modifications made by our laboratory (37, 38) (see FIG. 8).

CC1(C)CC(C)(C)c2cc(NC(=S)Nc3ccc([N+](=O)[O-])cc3)ccc2S1 [SHetA2]
percent growth ([1]; 10 and 100 μM SHetA2, majority of cell lines): negative percent growth levels
GI50 values ([1]; 55 cell lines representing 9 cancer types): micromolar range
growth inhibition of endothelial cells compared with A2780 and OVCAR-3 [2]: much less growth inhibited
development of the DMBA-induced cancer phenotype [3]: prevented the development of this phenotype
ALT Activity [4]: 118.5 ± 153.4 mm/liter/min
angiogenesis (blood vessel density) in CAM assay [5]: inhibits angiogenesis
